In ChEMBL document CHEMBL3603789, “N-Lipidated Peptide Dimers: Effective Antibacterial Agents against Gram-Negative Pathogens through Lipopolysaccharide Permeabilization” (J Med Chem, 2015):
≈ marks a conversion by molar mass, not a printed value. Bridge positions count the residues as written; N and C are the ends. Peptide text beside a SMILES is read from it. I, II: the chains in the order shown. * marks the point of attachment. Myristoyl = CCCCCCCCCCCCCC(=O)*; Lauroyl = CCCCCCCCCCCC(=O)*; Decanoyl = CCCCCCCCCC(=O)*; Octanoyl = CCCCCCCC(=O)*; Hexanoyl = CCCCCC(=O)*; Butyryl = CCCC(=O)*

Assays:
[1] = test system: Klebsiella pneumoniae; assay: Antibacterial activity against Klebsiella pneumoniae DM4299 after 24 hrs by broth microdilution method; assay type: functional; conditions: DM4299, 24 h
[2] = test system: Pseudomonas aeruginosa; assay: Antibacterial activity against Pseudomonas aeruginosa DM23155 after 24 hrs by broth microdilution method; assay type: functional; conditions: DM23155, 24 h
[3] = Toxicity in New Zealand white rabbit erythrocytes assessed as hemolytic activity after 60 mins; assay type: cell-based, Oryctolagus cuniculus; conditions: erythrocyte, 1 h
[4] = test system: Escherichia coli; assay: Antibacterial activity against Escherichia coli ATCC 25922 after 24 hrs by broth microdilution method; assay type: functional; conditions: ATCC 25922, 24 h
[5] = test system: Lipopolysaccharide (LPS); assay: Displacement of dansylcadaverine from Escherichia coli 0111:B4 LPS at 15 to 30 uM after 5 mins by high-throughput fluorescence displacement assay
[6] = test system: Lipopolysaccharide (LPS); assay: Induction of Escherichia coli 0111:B4 LPS neutralization using p-nitroaniline assessed as concentration required to neutralize 50% after 1 hr by limulus amebocyte lysate assay
[7] = test system: Pseudomonas aeruginosa; assay: Induction of 1-N-phenylnaphthylamine uptake in Pseudomonas aeruginosa DM23155 at 400 uM after 1 hr by fluorescence assay relative to polymyxin B; assay type: functional
[8] = Induction of calcein leakage from DOPE/DOPG artificial membrane at 1:32 ratio of compound to lipid by fluorescence assay; assay type: physicochemical
[9] = test system: Pseudomonas aeruginosa; assay: Induction of cytoplasmic membrane disruption in Pseudomonas aeruginosa DM23155 assessed as membrane integrity at 1 to 2 times MIC after 1 hr by fluorescence assay; assay type: functional

Row | SMILES | MIC [1] [µM] | MIC [2] [µM] | MIC [4] [µM] | Activity [5] [%] | EC50 [6] [mM] | Activity [8] | HC10 [3] [µg/mL] | Activity [7] [%] | Activity [9] [%]
1 | CC(=O)N[C@@H](CCCNC(=N)N)C(=O)NCC(=O)N[C@@H](CCCNC(=N)N)C(=O)N[C@@H](CCCCN)C(=O)NCC(=O)NCC(=O)N[C@@H](CCCNC(=N)N)C(=O)N[C@@H](CCCNC(=N)N)C(=O)N[C@@H](CCCCN)C(=O)N[C@@H](CCCCN)C(=O)O (Ac-RGRKGGRRKK-OH) | > 80 | > 80 | 20 (≈ 24.8 µg/mL) | – | – | – | > 10000 | – | –
2 | CC(=O)N[C@@H](CCCNC(=N)N)C(=O)NCC(=O)N[C@@H](CCCNC(=N)N)C(=O)N[C@@H](CCCCN)C(=O)N[C@H](C(=O)N[C@H](C(=O)N[C@@H](CCCNC(=N)N)C(=O)N[C@@H](CCCNC(=N)N)C(=O)N[C@@H](CCCCN)C(=O)N[C@@H](CCCCN)C(=O)O)C(C)C)C(C)C (Ac-RGRKVVRRKK-OH) | > 80 | > 80 | 40 (≈ 53 µg/mL) | – | – | – | > 10000 | – | –
3 | CCCC(=O)N[C@@H](CCCNC(=N)N)C(=O)NCC(=O)N[C@@H](CCCNC(=N)N)C(=O)N[C@@H](CCCCN)C(=O)N[C@H](C(=O)N[C@H](C(=O)N[C@@H](CCCNC(=N)N)C(=O)N[C@@H](CCCNC(=N)N)C(=O)N[C@@H](CCCCN)C(=O)N[C@@H](CCCCN)C(=O)O)C(C)C)C(C)C (Butyryl-RGRKVVRRKK-OH) | > 80 | > 80 | 40 (≈ 54.1 µg/mL) | – | – | – | > 10000 | – | –
4 | N=C(N)NCCC[C@H](NC(=O)CNC(=O)[C@@H](N)CCCNC(=N)N)C(=O)N[C@@H](CCCCN)C(=O)NCC(=O)NCC(=O)N[C@@H](CCCNC(=N)N)C(=O)N[C@@H](CCCNC(=N)N)C(=O)N[C@@H](CCCCN)C(=O)N[C@@H](CCCCN)C(=O)O (H-RGRKGGRRKK-OH) | > 80 | > 80 | 20 (≈ 24 µg/mL) | – | – | – | > 10000 | – | –
5 | CC(C)[C@H](NC(=O)[C@H](CCCCN)NC(=O)[C@H](CCCNC(=N)N)NC(=O)CNC(=O)[C@@H](N)CCCNC(=N)N)C(=O)N[C@H](C(=O)N[C@@H](CCCNC(=N)N)C(=O)N[C@@H](CCCNC(=N)N)C(=O)N[C@@H](CCCCN)C(=O)N[C@@H](CCCCN)C(=O)O)C(C)C (H-RGRKVVRRKK-OH) | > 80 | 80 (≈ 103 µg/mL) | 10 (≈ 12.8 µg/mL) | – | – | – | > 10000 | – | –
6 | CCCCCC(=O)N[C@@H](CCCNC(=N)N)C(=O)NCC(=O)N[C@@H](CCCNC(=N)N)C(=O)N[C@@H](CCCCN)C(=O)NCC(=O)NCC(=O)N[C@@H](CCCNC(=N)N)C(=O)N[C@@H](CCCNC(=N)N)C(=O)N[C@@H](CCCCN)C(=O)N[C@@H](CCCCN)C(=O)O (Hexanoyl-RGRKGGRRKK-OH) | > 80 | > 80 | 20 (≈ 25.9 µg/mL) | – | – | – | > 10000 | – | –
7 | CCCCCC(=O)N[C@@H](CCCNC(=N)N)C(=O)NCC(=O)N[C@@H](CCCNC(=N)N)C(=O)N[C@@H](CCCCN)C(=O)N[C@H](C(=O)N[C@H](C(=O)N[C@@H](CCCNC(=N)N)C(=O)N[C@@H](CCCNC(=N)N)C(=O)N[C@@H](CCCCN)C(=O)N[C@@H](CCCCN)C(=O)O)C(C)C)C(C)C (Hexanoyl-RGRKVVRRKK-OH) | 80 (≈ 110 µg/mL) | 80 (≈ 110 µg/mL) | 10 (≈ 13.8 µg/mL) | – | – | – | > 10000 | – | –
8 | CCCCCCCC(=O)N[C@@H](CCCNC(=N)N)C(=O)NCC(=O)N[C@@H](CCCNC(=N)N)C(=O)N[C@@H](CCCCN)C(=O)N[C@H](C(=O)N[C@H](C(=O)N[C@@H](CCCNC(=N)N)C(=O)N[C@@H](CCCNC(=N)N)C(=O)N[C@@H](CCCCN)C(=O)N[C@@H](CCCCN)C(=O)O)C(C)C)C(C)C (Octanoyl-RGRKVVRRKK-OH) | > 80 | 10 (≈ 14.1 µg/mL) | 6 (≈ 8.45 µg/mL) | 69.9 | > 1 | – | > 10000 | – | –

Now from value to compound, other results behind:

Row | MIC [1] [µM] | MIC [2] [µM] | MIC [4] [µM] | Activity [5] [%] | EC50 [6] [mM] | Activity [8] | SMILES | HC10 [3] [µg/mL] | Activity [7] [%] | Activity [9] [%]
9 | 80 (≈ 101 µg/mL) | 80 (≈ 101 µg/mL) | 40 (≈ 50.7 µg/mL) | – | – | – | CCCC(=O)N[C@@H](CCCNC(=N)N)C(=O)NCC(=O)N[C@@H](CCCNC(=N)N)C(=O)N[C@@H](CCCCN)C(=O)NCC(=O)NCC(=O)N[C@@H](CCCNC(=N)N)C(=O)N[C@@H](CCCNC(=N)N)C(=O)N[C@@H](CCCCN)C(=O)N[C@@H](CCCCN)C(=O)O (Butyryl-RGRKGGRRKK-OH) | > 10000 | – | –
10 | 20 (≈ 27.1 µg/mL) | 10 (≈ 13.5 µg/mL) | 10 (≈ 13.5 µg/mL) | – | – | – | CCCCCCCCCC(=O)N[C@@H](CCCNC(=N)N)C(=O)NCC(=O)N[C@@H](CCCNC(=N)N)C(=O)N[C@@H](CCCCN)C(=O)NCC(=O)NCC(=O)N[C@@H](CCCNC(=N)N)C(=O)N[C@@H](CCCNC(=N)N)C(=O)N[C@@H](CCCCN)C(=O)N[C@@H](CCCCN)C(=O)O (Decanoyl-RGRKGGRRKK-OH) | > 10000 | – | –
11 | 80 (≈ 115 µg/mL) | 20 (≈ 28.7 µg/mL) | 6 (≈ 8.62 µg/mL) | 78 | 0.566 | – | CCCCCCCCCC(=O)N[C@@H](CCCNC(=N)N)C(=O)NCC(=O)N[C@@H](CCCNC(=N)N)C(=O)N[C@@H](CCCCN)C(=O)N[C@H](C(=O)N[C@H](C(=O)N[C@@H](CCCNC(=N)N)C(=O)N[C@@H](CCCNC(=N)N)C(=O)N[C@@H](CCCCN)C(=O)N[C@@H](CCCCN)C(=O)O)C(C)C)C(C)C (Decanoyl-RGRKVVRRKK-OH) | > 10000 | – | –
12 | 3 (≈ 6.62 µg/mL) | 6 (≈ 13.2 µg/mL) | 1.5 (≈ 3.31 µg/mL) | 56.1 | > 1 | – | CC(=O)N[C@@H](CCCNC(=N)N)C(=O)NCC(=O)N[C@@H](CCCNC(=N)N)C(=O)N[C@@H](CCCCN)C(=O)NCC(=O)NCC(=O)N[C@@H](CCCNC(=N)N)C(=O)N[C@@H](CCCNC(=N)N)C(=O)NCCCC[C@H](NC(=O)[C@H](CCCNC(=N)N)NC(=O)[C@H](CCCNC(=N)N)NC(=O)CNC(=O)CNC(=O)[C@H](CCCCN)NC(=O)[C@H](CCCNC(=N)N)NC(=O)CNC(=O)[C@H](CCCNC(=N)N)NC(C)=O)C(=O)N[C@@H](CCCCN)C(=O)O (I: Ac-RGRKGGRRKK-OH / II: Ac-RGRKGGRR; amide I:9-II:C) | > 10000 | 1.6 | –
13 | 6 (≈ 14.2 µg/mL) | 6 (≈ 14.2 µg/mL) | 6 (≈ 14.2 µg/mL) | 75.7 | > 1 | Active | CC(=O)N[C@@H](CCCNC(=N)N)C(=O)NCC(=O)N[C@@H](CCCNC(=N)N)C(=O)N[C@@H](CCCCN)C(=O)N[C@H](C(=O)N[C@H](C(=O)N[C@@H](CCCNC(=N)N)C(=O)N[C@@H](CCCNC(=N)N)C(=O)NCCCC[C@H](NC(=O)[C@H](CCCNC(=N)N)NC(=O)[C@H](CCCNC(=N)N)NC(=O)[C@@H](NC(=O)[C@@H](NC(=O)[C@H](CCCCN)NC(=O)[C@H](CCCNC(=N)N)NC(=O)CNC(=O)[C@H](CCCNC(=N)N)NC(C)=O)C(C)C)C(C)C)C(=O)N[C@@H](CCCCN)C(=O)O)C(C)C)C(C)C (I: Ac-RGRKVVRRKK-OH / II: Ac-RGRKVVRR; amide I:9-II:C) | > 10000 | – | >80
14 | 6 (≈ 14.6 µg/mL) | 10 (≈ 24.3 µg/mL) | 3 (≈ 7.29 µg/mL) | 93.4 | > 1 | Active | CCCC(=O)N[C@@H](CCCNC(=N)N)C(=O)NCC(=O)N[C@@H](CCCNC(=N)N)C(=O)N[C@@H](CCCCN)C(=O)N[C@H](C(=O)N[C@H](C(=O)N[C@@H](CCCNC(=N)N)C(=O)N[C@@H](CCCNC(=N)N)C(=O)NCCCC[C@H](NC(=O)[C@H](CCCNC(=N)N)NC(=O)[C@H](CCCNC(=N)N)NC(=O)[C@@H](NC(=O)[C@@H](NC(=O)[C@H](CCCCN)NC(=O)[C@H](CCCNC(=N)N)NC(=O)CNC(=O)[C@H](CCCNC(=N)N)NC(=O)CCC)C(C)C)C(C)C)C(=O)N[C@@H](CCCCN)C(=O)O)C(C)C)C(C)C (I: Butyryl-RGRKVVRRKK-OH / II: Butyryl-RGRKVVRR; amide I:9-II:C) | > 10000 | – | >80
15 | 10 (≈ 13.8 µg/mL) | 6 (≈ 8.28 µg/mL) | 6 (≈ 8.28 µg/mL) | – | – | – | CCCCCCCCCCCC(=O)N[C@@H](CCCNC(=N)N)C(=O)NCC(=O)N[C@@H](CCCNC(=N)N)C(=O)N[C@@H](CCCCN)C(=O)NCC(=O)NCC(=O)N[C@@H](CCCNC(=N)N)C(=O)N[C@@H](CCCNC(=N)N)C(=O)N[C@@H](CCCCN)C(=O)N[C@@H](CCCCN)C(=O)O (Lauroyl-RGRKGGRRKK-OH) | 8602 | – | –
16 | 20 (≈ 29.3 µg/mL) | 10 (≈ 14.6 µg/mL) | 6 (≈ 8.79 µg/mL) | – | – | – | CCCCCCCCCCCC(=O)N[C@@H](CCCNC(=N)N)C(=O)NCC(=O)N[C@@H](CCCNC(=N)N)C(=O)N[C@@H](CCCCN)C(=O)N[C@H](C(=O)N[C@H](C(=O)N[C@@H](CCCNC(=N)N)C(=O)N[C@@H](CCCNC(=N)N)C(=O)N[C@@H](CCCCN)C(=O)N[C@@H](CCCCN)C(=O)O)C(C)C)C(C)C (Lauroyl-RGRKVVRRKK-OH) | > 10000 | – | –
17 | 10 (≈ 14.1 µg/mL) | 6 (≈ 8.45 µg/mL) | 6 (≈ 8.45 µg/mL) | – | – | – | CCCCCCCCCCCCCC(=O)N[C@@H](CCCNC(=N)N)C(=O)NCC(=O)N[C@@H](CCCNC(=N)N)C(=O)N[C@@H](CCCCN)C(=O)NCC(=O)NCC(=O)N[C@@H](CCCNC(=N)N)C(=O)N[C@@H](CCCNC(=N)N)C(=O)N[C@@H](CCCCN)C(=O)N[C@@H](CCCCN)C(=O)O (Myristoyl-RGRKGGRRKK-OH) | 6670 | – | –
18 | 6 (≈ 8.96 µg/mL) | 10 (≈ 14.9 µg/mL) | 6 (≈ 8.96 µg/mL) | – | – | – | CCCCCCCCCCCCCC(=O)N[C@@H](CCCNC(=N)N)C(=O)NCC(=O)N[C@@H](CCCNC(=N)N)C(=O)N[C@@H](CCCCN)C(=O)N[C@H](C(=O)N[C@H](C(=O)N[C@@H](CCCNC(=N)N)C(=O)N[C@@H](CCCNC(=N)N)C(=O)N[C@@H](CCCCN)C(=O)N[C@@H](CCCCN)C(=O)O)C(C)C)C(C)C (Myristoyl-RGRKVVRRKK-OH) | 8897 | – | –
